Measurements published in patent US6841566B2, “Viral polymerase inhibitors” (Boehringer Ingelheim, Ltd., priority 2001, dated 2005).

Test system: Huh7 cells that stably maintain a subgenomic HCV replicon (S22.3 cell-line)
Experiment: Cell based HCV RNA replication assay (S22.3 replicon cells, real-time RT-PCR)
Details: Hepatitis C virus, Huh-7, 72 hours
Procedure: Huh7 cells that stably maintain a subgenomic HCV replicon were established as previously described (Lohman et al., 1999. Science 285: 110-113) and designated as the S22.3 cell-line. S22.3 cells were maintained in Dulbecco's Modified […] Medium (DMEM) supplemented with 10% FBS and 0.5 mg/mL neomycin (Standard Medium). During the assay, DMEM medium supplemented with 10% FBS, containing 0.5% DMSO and lacking neomycin was used (Assay Medium). 16 hours prior to compound addition, S22.3 cells are trypsinized and diluted to 100 000 cells/ml in Standard Medium. 100μL (10 000 cells) are distributed into each well of a 96-well plate. The plate was then incubated at 37° C. with 5% CO2 until the next day.
10 μL of test compound (in 100% DMSO) was added to 2 ml of Assay Medium for a final DMSO concentration of 0.5% and the solution was sonicated for 15 min and filtered through a […] Millipore Filter Unit. 900 μl was transferred into row A of a Polypropylene Deep-Well Titer Plate. Rows B to H, contain 400 μL aliquots of Assay Medium (containing 0.5% DMSO), and were used to prepare serial dilutions (1/2) by transferring 400 μl from row to row (no compound was included in row H).
Cell culture medium was aspirated from the 96-well plate containing the S22.3 cells. 175 μL of assay medium with the appropriate dilution of test compound was transferred from each well of the compound plate to the corresponding well of the cell culture plate (row H was used as the “No inhibition control”). The cell culture plate was incubated at 37° C. with 5% CO2 for 72 hours.
Following the 72 hour incubation period, the total cellular RNA was extracted from the S22.3 cells of the 96-well plate using the RNeasy 96 kit (Qiagen®, RNeasy Handbook. 1999.). Briefly, assay medium was completely removed from cells and 100 μL of RLT buffer (Qiagen®) containing 143 mM β-mercaptoethanol was added to each well of the 96-well cell-culture plate. The microplate was gently shaken for 20 sec. 100 μL of 70% ethanol was then added to each microplate well, and mixed by pipetting. The lysate was removed and applied to the wells of a RNeasy 96 (Qiagen®) plate that was placed on top of a Qiagen® Square-Well Block. The RNeasy 96 plate was sealed with tape and the Square-Well Block with the RNeasy 96 plate was loaded into the holder and placed in a rotor bucket of a 4K15C centrifuge. The sample was centrifuged at 6000 rpm (˜5600×g) for 4 min at room temperature. The tape was removed from the plate and 0.8 ml of Buffer RW1 (Qiagen® RNeasy 96 kit) was added to each well of the RNeasy 96 plate. The RNeasy 96 plate was sealed with a new piece of tape and centrifuged at 6000 rpm for 4 min at room temperature. The RNeasy 96 plate was placed on top of another clean Square-Well Block, the tape removed and 0.8 ml of Buffer RPE (Qiagen® RNeasy 96 kit) was added to each well of the RNeasy 96 plate. The RNeasy 96 plate was sealed with a new piece of tape and centrifuged at 6000 rpm for 4 min at room temperature. The tape was removed and another 0.8 ml of Buffer RPE (Qiagen® RNeasy 96 kit) was added to each well of the RNeasy 96 plate. The RNeasy 96 plate was sealed with a new piece of tape and centrifuged at 6000 rpm for 10 min at room temperature. Tape was removed, the RNeasy 96 plate was placed on top of a rack containing 1.2-mL collection microtubes. The RNA was eluted by adding 50 μL of RNase-free water to each well, sealing plate with a new piece of tape and incubated for 1 min at room temperature. The plate was then centrifuged at 6000 rpm for 4 min at room temperature. The elution step was repeated with a second volume of 50 μl RNase-free water. The microtubes with total cellular RNA are stored at −70° C.
RNA was quantified on the STORM® system (Molecular Dynamics®) using the RiboGreen® RNA Quantification Kit (Molecular Probes®). Briefly, the RiboGreen reagent was diluted 200-fold in TE (10 mM Tris-HCl pH=7.5, 1 mM EDTA). Generally, 50 μL of reagent was diluted in 10 mL TE. […]

Row | Compound | EC50
1 | O=C(O)C=Cc1ccc(NC(=O)C2(NC(=O)c3ccc4c(c3)nc(-c3ccco3)n4C3CC4CCC3C4)CCCC2)cc1 (mixture of isomers) [compound 2017] | ≤ 5 µM
2 | O=C(O)C=Cc1ccc(NC(=O)C2(NC(=O)c3ccc4c(c3)nc(-c3cccs3)n4C3CC4CCC3C4)CCCC2)cc1 (mixture of isomers) [compound 2019] | ≤ 5 µM
3 | O=C(O)C=Cc1ccc(NC(=O)C2(NC(=O)c3ccc4c(c3)nc(-c3ccccn3)n4C3CC4CCC3C4)CCCC2)cc1 (mixture of isomers) [compound 2020] | ≤ 5 µM
4 | O=C(O)C=Cc1ccc(NC(=O)C2(NC(=O)c3ccc4c(c3)nc(-c3ccoc3)n4C3CC4CCC3C4)CCCC2)cc1 (mixture of isomers) [compound 2021] | ≤ 5 µM
5 | CC1CCCC(C)C1n1c(-c2ccco2)nc2cc(C(=O)NC3(C(=O)Nc4ccc(C=CC(=O)O)cc4)CCCC3)ccc21 (mixture of isomers) [compound 2033] | ≤ 5 µM
6 | CC1CCCC(C)C1n1c(-c2cccs2)nc2cc(C(=O)NC3(C(=O)Nc4ccc(C=CC(=O)O)cc4)CCCC3)ccc21 (mixture of isomers) [compound 2035] | ≤ 5 µM
7 | CC1CCCC(C)C1n1c(-c2ccccn2)nc2cc(C(=O)NC3(C(=O)Nc4ccc(C=CC(=O)O)cc4)CCCC3)ccc21 (mixture of isomers) [compound 2036] | ≤ 5 µM
8 | C[C@@H]1CCCC[C@H]1n1c(-c2ccccn2)nc2cc(C(=O)NC3(C(=O)Nc4ccc(/C=C/C(=O)O)cc4)CCCC3)ccc21 (racemic) [compound 2044] | ≤ 5 µM
9 | CC(NC(=O)c1ccc2c(c1)nc(-c1ccoc1)n2C1CCCCC1)C(=O)Nc1cccc(-c2cccc(N)c2)c1 (stereo not drawn) [compound 1022] | 5 to 50 µM
10 | Cc1cc(=O)oc2cc(NC(=O)[C@@H](C)NC(=O)c3ccc4c(c3)nc(-c3ccoc3)n4C3CCCCC3)ccc12 [compound 1026] | ≤ 5 µM
11 | CC(NC(=O)c1ccc2c(c1)nc(-c1ccoc1)n2C1CCCCC1)C(=O)Nc1ccc(C(=O)O)cc1 (stereo not drawn) [compound 1053] | 5 to 50 µM
12 | CC(NC(=O)c1ccc2c(c1)nc(-c1ccoc1)n2C1CCCCC1)C(=O)Nc1ccc(/C=C/C(=O)O)cc1 (stereo not drawn) [compound 1054] | 5 to 50 µM
13 | C[C@H](NC(=O)c1ccc2c(c1)nc(-c1ccoc1)n2C1CCCCC1)C(=O)Nc1ccc(/C=C/C(=O)O)cc1 [compound 1056] | 5 to 50 µM
14 | C[C@@H](NC(=O)c1ccc2c(c1)nc(-c1ccoc1)n2C1CCCCC1)C(=O)Nc1ccc(/C=C/C(=O)O)cc1 [compound 1057] | 5 to 50 µM
15 | CC(NC(=O)c1ccc2c(c1)nc(-c1ccoc1)n2C1CCCCC1)C(=O)Nc1ccc(-c2ccc(C(=O)O)o2)cc1 (stereo not drawn) [compound 1060] | 5 to 50 µM
16 | O=C(O)/C=C/c1ccc(NC(=O)C2(NC(=O)c3ccc4c(c3)nc(-c3ccoc3)n4C3CCCCC3)CC2)cc1 [compound 1070, (E)-3-(4-{[1-(1-{[1-(1-Cyclohexyl-2-furan-3-yl-1H-benzoimidazol-5-yl)-methanoyl]-amino}-cyclopropyl)-methanoyl]-amino}-phenyl)-acrylic acid] | 5 to 50 µM
17 | O=C(O)/C=C/c1ccc(NC(=O)C2(NC(=O)c3ccc4c(c3)nc(-c3ccoc3)n4C3CCCCC3)CCCC2)cc1 [compound 1071] | ≤ 5 µM
18 | O=C(O)/C=C/c1ccc(NC(=O)C2(NC(=O)c3ccc4c(c3)nc(-c3ccoc3)n4C3CCCCC3)CCCCC2)cc1 [compound 1072] | ≤ 5 µM
19 | Cc1oc(-c2cccc(NC(=O)[C@@H](C)NC(=O)c3ccc4c(c3)nc(-c3ccoc3)n4C3CCCCC3)c2)cc1C(=O)O [compound 1074] | ≤ 5 µM
20 | CC[C@@H](NC(=O)c1ccc2c(c1)nc(-c1ccoc1)n2C1CCCCC1)C(=O)Nc1ccc(/C=C/C(=O)O)cc1 [compound 1075, (E)-3-[4-((R)-2-{[1-(1-Cyclohexyl-2-furan-3-yl-1H-benzoimidazol-5-yl)-methanoyl]-amino}-butanoylamino)-phenyl]-acrylic acid] | 5 to 50 µM
21 | CCC[C@@H](NC(=O)c1ccc2c(c1)nc(-c1ccoc1)n2C1CCCCC1)C(=O)Nc1ccc(/C=C/C(=O)O)cc1 [compound 1076] | ≤ 5 µM

Row | Compound | EC50
22 | Cn1c(C(=O)O)cc2cc(NC(=O)C3(NC(=O)c4ccc5c(c4)nc(-c4ccoc4)n5C4CCCCC4)CCCC3)ccc21 [compound 1077] | ≤ 5 µM
23 | O=C(NC1(C(=O)Nc2ccc3nc(S)sc3c2)CCCC1)c1ccc2c(c1)nc(-c1ccoc1)n2C1CCCCC1 [compound 1078] | ≤ 5 µM
24 | O=C(O)/C=C/c1ccc(NC(=O)CNC(=O)c2ccc3c(c2)nc(-c2ccoc2)n3C2CCCCC2)cc1 [compound 1079] | 5 to 50 µM
25 | O=C(NC1(C(=O)Nc2ccc(-c3ccc(C(=O)O)o3)cc2)CCCC1)c1ccc2c(c1)nc(-c1ccoc1)n2C1CCCCC1 [compound 1080] | ≤ 5 µM
26 | C/C(=C\c1ccc(NC(=O)C2(NC(=O)c3ccc4c(c3)nc(-c3ccoc3)n4C3CCCCC3)CCCC2)cc1)C(=O)O [compound 1083] | ≤ 5 µM
27 | CCn1c(C(=O)O)cc2cc(NC(=O)C3(NC(=O)c4ccc5c(c4)nc(-c4ccoc4)n5C4CCCCC4)CCCC3)ccc21 [compound 1085] | ≤ 5 µM
28 | Cc1cc(NC(=O)C2(NC(=O)c3ccc4c(c3)nc(-c3ccoc3)n4C3CCCCC3)CCCC2)ccc1/C=C/C(=O)O [compound 1088] | ≤ 5 µM
29 | CC(C)(C)OC(=O)N1CCC(NC(=O)c2ccc3c(c2)nc(-c2ccoc2)n3C2CCCCC2)(C(=O)Nc2ccc(/C=C/C(=O)O)cc2)CC1 [compound 1089] | ≤ 5 µM
30 | Cc1nc(C(=O)O)sc1-c1ccc(NC(=O)C2(NC(=O)c3ccc4c(c3)nc(-c3ccoc3)n4C3CCCCC3)CCCC2)cc1 [compound 1091] | ≤ 5 µM
31 | CC(C)(NC(=O)c1ccc2c(c1)nc(-c1ccoc1)n2C1CCCCC1)C(=O)Nc1ccc(/C=C/C(=O)O)cc1 [compound 1093] | ≤ 5 µM
32 | O=C(O)/C=C/c1ccc(NC(=O)C2(NC(=O)c3ccc4c(c3)nc(-c3ccoc3)n4C3CCCCC3)CCC2)cc1 [compound 1094] | ≤ 5 µM
33 | O=C(NC1(C(=O)Nc2ccc3[nH]c(C(=O)O)cc3c2)CCCC1)c1ccc2c(c1)nc(-c1ccoc1)n2C1CCCCC1 [compound 1098] | 5 to 50 µM
34 | Cc1c(C(=O)O)sc2ccc(NC(=O)C3(NC(=O)c4ccc5c(c4)nc(-c4ccoc4)n5C4CCCCC4)CCCC3)cc12 [compound 1099] | ≤ 5 µM
35 | O=C(O)/C=C/c1ccc(NC(=O)C2(NC(=O)c3ccc4c(c3)nc(-c3ccoc3)n4C3CCCCC3)CCNCC2)cc1 [compound 1100] | ≤ 5 µM
36 | Cn1c(C(=O)O)cc2cc(NC(=O)C3(NC(=O)c4ccc5c(c4)nc(-c4ccoc4)n5C4CCCCC4)CCCNC3)ccc21 (stereo not drawn) [compound 1104] | ≤ 5 µM
37 | CCN1CCC(NC(=O)c2ccc3c(c2)nc(-c2ccoc2)n3C2CCCCC2)(C(=O)Nc2ccc(-c3nc(C(=O)O)cs3)cc2)CC1 [compound 1108] | ≤ 5 µM
38 | CCN1CCC(NC(=O)c2ccc3c(c2)nc(-c2ccoc2)n3C2CCCCC2)(C(=O)Nc2ccc(-c3nc(C(N)=O)cs3)cc2)CC1 [compound 1109] | ≤ 5 µM
39 | O=C(O)/C=C/c1ccc(NC(=O)C2(NC(=O)c3ccc4c(c3)nc(-c3ccsc3)n4C3CCCCC3)CCCC2)cc1 [compound 2001] | ≤ 5 µM
40 | C[C@@H](NC(=O)c1ccc2c(c1)nc(-c1ccccn1)n2C1CCCCC1)C(=O)Nc1ccc(/C=C/C(=O)O)cc1 [compound 2002] | ≤ 5 µM
41 | C[C@@H](NC(=O)c1ccc2c(c1)nc(-c1ccccc1)n2C1CCCCC1)C(=O)Nc1ccc(/C=C/C(=O)O)cc1 [compound 2003] | 5 to 50 µM
42 | C[C@@H](NC(=O)c1ccc2c(c1)nc(-c1ccc[nH]1)n2C1CCCCC1)C(=O)Nc1ccc(/C=C/C(=O)O)cc1 [compound 2004] | 5 to 50 µM
